The values that follow come from patent publication US8962263B2, “Methods and compositions for detecting the activation state of multiple proteins in single cells” (The Board of Trustees of the Leland Stanford Junior …, priority 2001, dated 2015).

The target of one data set is T1, LFA-1 (Mus musculus, UniProt P24063).
T1 construct: host or cells: mouse, in vivo
To be noted: oral; cited from earlier work.

The test system of another data set is CD56+CD8+ cells. In words: flow cytometric conjugate formation assay of CD56+CD8+ cells and HL60 cells. In kind it is cell-based, human. To be noted: chemicals 10 μM 30 min prior to ICAM-2 10 μg/ml 30 min. As to the method:
A) Conjugate formation of CFSE labeled HL60, cells and CD56^+, CD8^+, cells. Conjugate flow cytometric based assay was performed on PBMC treated with indicated chemicals (10, μM, 30, min) prior to treatment with ICAM-2, (10, μg/ml, 30, min). CFSE labeled HL60, cells were incubated at 25:1, E:T ratio for 5, min, and fixed with 1% paraformaldehyde. Cells were then immunolabeled with CD8 and CD56, antibodies, gated for CD8^+, CD56^+, cell populations and percent HL60, fluorescence was made relative to total HL60, cells. B) IL-2, activated PBMC were either treated with ICAM-2, (10 μg/ml, 30, min) or mock-treated (IgG) and stained for active-LFA-1, (mAb24-Alexa633), phospho-p44/42-Ax488, CD8-CY5PE, and CD56-PE.
Target cell lysis was measured by flow cytoemtric based detection of CFSE labeled HL60 cells. HL60 cells were labeled with 1 μg of CFSE (30 min, 37° C.). […] Percent specific lysis was calculated by the following equation: % specific lysis=100-100×(experimental HL60 count/total control HL60 count). HL60 counts were detectable by the CFSE fluorescence. Percent perforin was calculated by the following equation: % perforin=100×[(experimental perforin MFI−isotype mAb MFI)/(total perforin MFI−isotype mAb MFI)]. […] Cell conjugates were determined by flow cytometry as described (Morgan et al., 2001). […]

In a further data set the test system is NK leukemic cell line YT. To be noted: cited from earlier work.
The subject of a further data set is NIH3T3. The experiment in a line: staurosporine induced apoptosis in ICAM-2 transduced NIH3T3 (annexin-V binding, BrdU TUNEL). It counts as cell-based, murine. The conditions noted are these: for effect on ICAM-2 anti-apoptotic effect, other kinase inhibitors: cell type not stated, data not shown. As to the method: A) Pharmacological inhibitors of PI3K abrogate ICAM-2's anti-apoptotic. ICAM-2, or vector transduced BaF3, cells were treated with staurosporine (1, μM) with (unfilled) or without (filled) the addition of 100, nM wortmannin for 24, hours (left bar graph). Apoptosis was determined by nuclear staining and fluorescence microscopy (left bar graph) and by annexin-V binding assay (right bar graph). The proportion of apoptotic cells in each culture without staurosporine was 8%+/−2. The percentage of apoptotic cells is expressed as the mean (bar)+SD of triplicate cultures. ICAM-2, 1CAM2-AC, or vector transduced NIH3T3, were treated with staurosporine ([…]) in the presence or absence of 10, μM LY294002, for 24, hours (right bar graph). DMSO vehicle served as negative control. The percentage of apoptotic cells is expressed as the mean (bar)+/−SD of triplicate cultures. B) Confocal images of PI3K and AKT localization in ICAM-2, (top) or vector control cells (bottom). C) Confocal images of ezrin and the p85, subunit of PI3K (green) localization in ICAM-2, (top) or vector control cells (bottom).
A) The anti-apoptotic effect of ICAM-2, is both wortmannin and LY294002, sensitive. ICAM-2, or vector transduced BaF3, cells were treated with staurosporine (1, μM) with (unfilled) or without (filled) the addition of 100, nM wortmannin for 24 hours. Apoptosis was determined by nuclear staining and fluorescence microscopy (left bar graph) and by annexin-V binding assay (right bar graph). The proportion of apoptotic cells in each culture without staurosporine was 8%±2. The percentage of apoptotic cells is expressed as the mean (bar)±SD of triplicate cultures. ICAM-2, ICAM2-ΔC, or vector transduced NIH3T3, were treated with staurosporine (1, μM) in the presence or absence of 10, μM LY294002, for 24, hours. DMSO vehicle served as negative control. The percentage of apoptotic cells is expressed as the mean (bar)±SD of triplicate cultures. B) ICAM-2, expressing NIH3T3, cells are sensitive to apoptosis in the presence of PI3K inhibitor LY294002. BrdU TUNEL assay was performed in staurosporine (1, μM) or LY294002, (10, μM) treated ICAM-2, ICAM2-ΔC, and control vector transduced NIH3T3, cells. The percentage of apoptotic cells is expressed as the mean (bar)±SD of triplicate cultures.
Apoptosis was determined either by counting pyknotic nuclei, annexin-V binding by flow cytometry, or TUNEL BrdU staining by flow cytometry as indicated. Apoptosis was induced either by staurosporine (1 μm), treatment with anti-mouse Fas (5 μq/ml Santa Cruz Biotechnology (SCB), […] Fas (5 μg/ml Jo2 Biomed) or anti-human Fas (10 ng/ml CH11 Kamiya Biomedical) as indicated in appropriate experiment, IL-3 withdrawal-(24 hrs) or as indicated. For pyknolic nuclei count, NIH3T3 cells were grown on glass coverslips and assayed for apoptosis. Suspension cells were analyzed by nuclear staining with 25 μM acridine orange/25 μm ethidium bromide or 5 μg/ml Hoechst 33342 (Molecular Probes, Eugene, Oreg.). Apoptosis was identified by the presence of characteristic pyknotic nuclei as described (Jacobson and Raff, 1995). At least 5 individual fields were photographed and counted using a Zeiss axioscope fluorescence microscope. For the survival assay 10^6 NIH3T3 cells were plated in 10 cm dishes and incubated overnight at 37° C. The cells were treated with 1 μM staurosporine for 24 hours. The cells were washed and cultured for 24 hours in complete medium. The cells were trypsinized and viable cells counted following trypan blue staining. Untreated cells were counted at the time of treatment. % survival represents (number of viable cells post-treatment)/(number of viable cells pretreatment). FACS based annexin-V-FITC/PI staining was done as described (PharMingen). TUNEL assay was performed as described by manufacturer of Apoptosis BrdU kit (Promega). […]

A further data set has as its system ezrin. In words: phosphotyrosine-protein based elisa for ezrin tyrosine phosphorylation upon ICAM-2 ligation. It counts as cell-based, human. The conditions noted are these: Jurkat cells. The protocol: A) Expression levels of ICAM-2, vary across cell lines of different origins. Quantitative flow cytometry analysis was performed to assess the number of ICAM-2 surface molecules across transformed and untransformed fibroblasts, lymphocytes of T-cell and different B-cell differentiation states and myeloid lineages (see Material and Methods for elaboration). The number of surface molecules/cell is expressed as the mean (bar)+/−SD of triplicate experiments. B) Crosslinking of endogenous ICAM-2, induces ezrin tyrosine phosphorylation and enhanced ICAM-2, interaction. Jurkat cells were crosslinked for ICAM-2 using monoclonal antibody for the indicated times and subjected to immunoprecipitation/immunoblotting as indicated. C) Inhibition of ezrin phosphotyrosine by chemical inhibitors of src and Rho-dependent kinases. D) Ezrin phosphorylation and enhanced interaction with the p85, subunit of PI3K as a function of ICAM-2. Determined as described above. E) PDK-1, activity as a function of ICAM-2, ligation, as described above). F) PI3K and AKT localize to the membrane as a function of ICAM-2, ligation. Membrane/cytosolic fractionation was performed on ICAM-2, ligated Jurkat cells as a function of time and subjected to immunoblotting for PI3K and AKT.
In order to identify upstream kineses capable of tyrosine phosphorylating ezrin as a function of ICAM-2 ligation, we developed a phosphotyrosine-protein based elisa to screen for the inhibition of ezrin tyrosine phosphorylation in vivo by various known inhibitors of protein kineses (Perez and Nolan, manuscript in preparation). […] Given the design of the screen to detect tyrosine residue phosphorylation, we speculate that activation of Rho-dependent processes may be a prerequisite for ezrin to be tyrosine phosphorylated by src (elaborated below).

The subject of data set [1] is Syk. The experiment in a line: sICAM-2 induced Syk phosphorylation (phospho-tyrosine based ELISA, chemical genetic approach). In kind it is cell-based. The conditions noted are these: sICAM-2 stimulus. An excerpt: (§1) E) depicts that LFA-1, induced phosphorylation of Pyk2, and Syk is dependent on PKC. We screened for the inhibition of sICAM-2, induced Pyk2, and Syk phosphorylation by chemical inhibitors to tyrosine kinases using a phospho-tyrosine based ELISA. Pyk2, phosphorylation was abrogated in the presence of PKC inhibitors bisindolymaleimide II (BIM II) and staurosporine (STP), in addition to tyrphostin A9, a specific Pyk2, inhibitor. a Pyk2, phosphorylation was also affected by inhibitors of phospholipase Cg (neomycin), inhibitors of Syk (piceatannol), and PKC inhibitor BIM I. Syk phosphorylation was completely abolished by inhibition of Pyk2, PLCg1, and strongly affected by PKC inhibitors. Thus, both Pyk2, and Syk phosphorylations were dependent on PKC activity, while Syk phosphorylation was additionally dependent on PLCg1, and Pyk2, activity. It was not possible to assess specific PKC isozymes by this method.
A chemical genetic approach was undertaken to determine the hierarchy of PKC, Pyk2, PLCg1, and Syk activities in response to sICAM-2, stimulus by verifying phosphorylation status of each kinase in the presence of respective chemical inhibitors. Inhibition of PKC with BIM II abrogated phosphorylation of Pyk2, PLCg1, and Syk. Inhibition of PLCg1, by neomycin abrogated phosphorylation of Syk, with no inhibition observed for Pyk2. […]

A further data set has as its system PLCg1. The experiment in a line: sICAM-2 induced PLCg1 phosphorylation (chemical genetic approach). It counts as cell-based. The conditions noted are these: sICAM-2 stimulus. The source says: (§2) A chemical genetic approach was undertaken to determine the hierarchy of PKC, Pyk2, PLCg1, and Syk activities in response to sICAM-2, stimulus by verifying phosphorylation status of each kinase in the presence of respective chemical inhibitors. Inhibition of PKC with BIM II abrogated phosphorylation of Pyk2, PLCg1, and Syk. Inhibition of PLCg1, by neomycin abrogated phosphorylation of Syk, with no inhibition observed for Pyk2. […] Thus, the upstream signaling events from LFA-1, to Raf-1, appear to involve PKC/Pyk2/PLCg1/Syk. […] We are currently pursuing these complexes in a separate study.

Another data set relates to Pyk2. The experiment in a line: sICAM-2 induced Pyk2 phosphorylation (phospho-tyrosine based ELISA, chemical genetic approach). In kind it is cell-based. The conditions noted are these: for sICAM-2 induced Pyk2 phosphorylation: phospho-tyrosine based ELISA.
Description: as §1, §2

Data set [2] relates to Syk. The conditions noted are these: cited from earlier work.
The subject of another data set is Raf and p44/42 MAPK. The experiment in a line: phospho-raf and phospho-p44/42 immunoblot kinase inhibitor screen after ICAM-2 stimulus. In kind it is cell-based, human. To be noted: compound 10 μM 30 min, then ICAM-2 10 μg/ml 30 min.

T1 sequence (P24063 24-1162): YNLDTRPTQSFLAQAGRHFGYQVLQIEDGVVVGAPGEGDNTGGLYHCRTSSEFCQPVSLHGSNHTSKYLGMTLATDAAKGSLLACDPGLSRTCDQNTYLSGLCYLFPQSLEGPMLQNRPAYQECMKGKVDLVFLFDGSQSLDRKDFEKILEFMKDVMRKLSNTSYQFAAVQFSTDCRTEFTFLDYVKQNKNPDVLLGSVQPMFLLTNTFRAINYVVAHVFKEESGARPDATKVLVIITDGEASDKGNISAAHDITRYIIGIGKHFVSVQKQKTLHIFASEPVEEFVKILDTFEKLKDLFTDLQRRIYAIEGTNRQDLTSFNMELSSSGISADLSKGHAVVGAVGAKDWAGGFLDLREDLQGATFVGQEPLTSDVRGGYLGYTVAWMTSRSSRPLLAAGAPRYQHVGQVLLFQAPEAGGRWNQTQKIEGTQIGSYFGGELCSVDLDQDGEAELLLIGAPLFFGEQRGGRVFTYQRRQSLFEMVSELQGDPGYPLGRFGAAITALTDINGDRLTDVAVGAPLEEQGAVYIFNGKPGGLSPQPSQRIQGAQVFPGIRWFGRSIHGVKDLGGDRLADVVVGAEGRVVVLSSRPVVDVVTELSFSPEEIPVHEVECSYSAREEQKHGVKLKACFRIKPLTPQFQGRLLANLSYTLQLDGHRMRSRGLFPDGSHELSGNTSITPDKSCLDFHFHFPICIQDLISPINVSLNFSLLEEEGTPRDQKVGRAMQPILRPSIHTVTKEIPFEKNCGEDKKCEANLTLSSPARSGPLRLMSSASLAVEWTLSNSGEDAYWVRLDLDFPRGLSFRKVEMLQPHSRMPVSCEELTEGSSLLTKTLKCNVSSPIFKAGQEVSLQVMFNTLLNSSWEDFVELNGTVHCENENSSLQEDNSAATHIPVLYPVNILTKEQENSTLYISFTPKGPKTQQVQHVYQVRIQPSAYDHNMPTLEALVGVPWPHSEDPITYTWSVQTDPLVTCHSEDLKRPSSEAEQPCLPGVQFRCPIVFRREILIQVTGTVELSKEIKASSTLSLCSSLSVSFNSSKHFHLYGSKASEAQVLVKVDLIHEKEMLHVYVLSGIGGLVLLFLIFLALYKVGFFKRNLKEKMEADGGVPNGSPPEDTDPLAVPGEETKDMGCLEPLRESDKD
T1 sequence (P11835 24-771 partner): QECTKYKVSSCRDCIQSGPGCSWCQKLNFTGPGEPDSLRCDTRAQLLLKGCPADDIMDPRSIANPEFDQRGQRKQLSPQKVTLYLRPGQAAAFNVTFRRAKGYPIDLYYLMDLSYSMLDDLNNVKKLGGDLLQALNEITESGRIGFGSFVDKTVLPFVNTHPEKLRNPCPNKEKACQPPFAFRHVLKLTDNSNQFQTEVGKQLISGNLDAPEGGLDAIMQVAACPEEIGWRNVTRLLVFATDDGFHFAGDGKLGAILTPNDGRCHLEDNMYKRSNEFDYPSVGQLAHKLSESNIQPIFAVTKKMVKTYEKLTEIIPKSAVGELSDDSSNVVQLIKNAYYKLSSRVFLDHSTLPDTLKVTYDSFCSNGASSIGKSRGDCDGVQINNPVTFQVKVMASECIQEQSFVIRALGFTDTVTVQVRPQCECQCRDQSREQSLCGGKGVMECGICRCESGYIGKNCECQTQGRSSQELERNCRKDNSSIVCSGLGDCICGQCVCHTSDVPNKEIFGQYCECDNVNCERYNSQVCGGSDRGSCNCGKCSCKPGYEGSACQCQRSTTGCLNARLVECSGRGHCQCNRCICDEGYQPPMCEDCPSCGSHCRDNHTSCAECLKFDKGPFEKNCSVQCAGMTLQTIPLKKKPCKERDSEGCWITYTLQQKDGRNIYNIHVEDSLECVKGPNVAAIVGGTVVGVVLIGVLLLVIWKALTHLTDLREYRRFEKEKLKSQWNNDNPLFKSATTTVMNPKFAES
Description for Raf and p44/42 MAPK: Serum starved cells were treated with 10, μM of indicated compound 30, minutes prior to being ICAM-2, crosslinked for 30, minutes (10, μg/ml) and assessed for phosphorylated Raf and p44/42, MAPK using phospho specific antibodies in standard immunoblot procedures. Control IgG dissolved in 0.1% DMSO served as negative control. Blots are representative of triplicate experiments. […] Co-immunoprecipitation experiments were performed immunoprecipitating αL and β2, integrin and immunoblotting for the presence of SYK and PYK as a function of a stimulus for 30, minutes as indicated (antibodies used at 10, μg/ml, compounds used at 1, μM and control 19, served as negative control).
A) Phospho-raf and phospho-p44/42, immunoblot inhibition profile by tyrosine kinase inhibitors. […] Cell lysates were immunoblotted for phospho-raf and phospho-p44/42. […] Phospho-specificity was determined by phospho-PykpY402, and phospho-syk (Tyr525/526) antibodies. […] Cells were treated and processed as above. Phospho-specific PKCα/βII, (Thr638) and the following antibodies were used; Pyk2, and Syk were first immunoprecipated, probed with anti-phosphotyrosine antibody (PY20), stripped and subsequently probed with indicated non-phospho specific antibody. Immunoblots are representative of triplicate experiments. […]

As for `CC[C@H](C)C(=O)O[C@H]1C[C@@H](C)C=C2C=C[C@H](C)[C@H](CC[C@H]3C[C@@H](O)CC(=O)N3Cc3ccc4c(CO)c(OC)ccc4c3)[C@H]21` [LFA703], at LFA-1, the inflammatory response result was “suppressed the inflammatory response”.

On to `COc1cccc(-c2cc(=O)c3ccccc3o2)c1N` [PD98059], for which the “effector-target (E:T) conjugate formation” value in the data set with CD56+CD8+ cells is “did not”. The perforin redistribution entry in the data set on NK leukemic cell line YT is recorded as “inhibits perforin redistribution to the site of effector-target cell contact”. Also, the “effect on ICAM-2 anti-apoptotic effect, other kinase inhibitors” value with NIH3T3 is listed as “not abrogated”.

`CN1CCCC1CCn1cc(C2=C(c3c[nH]c4ccccc34)C(=O)NC2=O)c2ccccc21` (centres unmarked) [bisindolymaleimide II]: in the data set on ezrin, the “tyrosine phosphorylation of ezrin” value is reported as “minor affects”. Further, in the data set on Syk [1], the “phosphorylation of Syk” value is reported as “abrogated”. Also, in the data set with PLCg1, the “phosphorylation of PLCg1” value is on record as “abrogated”. In the data set with Pyk2 (chemical genetic approach, sICAM-2 stimulus), the “phosphorylation of Pyk2” value is on record as “abrogated”. Further, the “sICAM-2 induced Pyk2 phosphorylation” value with Pyk2 was “abrogated”. The “ICAM-2 induced survival signal” value in the data set on NIH3T3 (PKC isozyme inhibitors, system not specified) is “did not abrogate”. In addition, in the data set with NIH3T3, the “effect on ICAM-2 anti-apoptotic effect, other kinase inhibitors” value is reported as “not abrogated”.

As to `Oc1cc(O)cc(/C=C/c2ccc(O)c(O)c2)c1` [piceatannol], the natural cytotoxicity result in the data set with Syk [2] is given as “inhibits natural cytotoxicity”.

As to `CC(C)(C)c1cc(C=C(C#N)C#N)cc(C(C)(C)C)c1O` [tyrphostin A9], the “sICAM-2 induced Pyk2 phosphorylation” value in the data set on Pyk2 is listed as “abrogated”. The “effect on ICAM-2 induced activation of Raf and p44/42 MAPK” value with Raf and p44/42 MAPK is on record as “abrogated”.
